What was measured:
[1] = system: antibodies in sera from SARS patients (sera 1a, 1b, 2, 6, 37, 62, London, SARS-yellow, SARS-green); assay type: binding, human; design: Binding of serum 6 to linear peptides of protein X1 of SARS-CoV Urbani / Binding of serum 37 to linear peptides of protein X1 of SARS-CoV Urbani / Binding of serum 6 to looped/cyclic peptide (PEPSCAN-ELISA) / Binding of serum 37 to looped/cyclic peptide (PEPSCAN-ELISA) / Binding of serum 37 to looped/cyclic peptides of protein X1 of SARS-CoV Urbani / Binding of serum 6 to linear peptides of protein X2 / Binding of serum 37 to linear peptides of protein X2 / Binding of serum 37 to looped/cyclic peptides of protein X2 of SARS-CoV Urbani / Binding of serum 6 to linear peptides of protein M of SARS-CoV Urbani / Binding of serum 37 to linear peptides of protein M of SARS-CoV Urbani / Binding of serum 6 to looped/cyclic peptides of protein M of SARS-CoV Urbani / Binding of serum 37 to looped/cyclic peptides of protein M of SARS-CoV Urbani / Binding of serum 6 to linear peptides of protein X3 of SARS-CoV Urbani / Binding of serum 37 to linear peptides of protein X3 of SARS-CoV Urbani / Binding of serum 37 to looped/cyclic peptides of protein X3 of SARS-CoV Urbani / Binding of serum 6 to linear peptides of protein X4 of SARS-CoV Urbani / Binding of serum 37 to linear peptides of protein X4 of SARS-CoV Urbani / Binding of serum 37 to looped/cyclic peptides of protein X4 of SARS-CoV Urbani / Binding of serum 6 to linear peptides of protein X5 of SARS-CoV Urbani / Binding of serum 37 to linear peptides of protein X5 of SARS-CoV Urbani / Binding of serum 37 to looped/cyclic peptides of protein X5 of SARS-CoV Urbani / Binding of serum 6 to linear peptides of protein N of SARS-CoV Urbani / Binding of serum 37 to linear peptides of protein N of SARS-CoV Urbani / Binding of serum 6 to linear peptide (PEPSCAN-ELISA) / Binding of serum 1a to looped/cyclic peptides of protein N of SARS-CoV Urbani / Binding of serum 1b to looped/cyclic peptides of protein N of SARS-CoV Urbani / Binding of serum 2 to looped/cyclic peptides of protein N of SARS-CoV Urbani / Binding of serum 6 to looped/cyclic peptides of protein N of SARS-CoV Urbani / Binding of serum 37 to looped/cyclic peptides of protein N of SARS-CoV Urbani / Binding of serum 62 to looped/cyclic peptides of protein N of SARS-CoV Urbani / Binding of serum London to looped/cyclic peptides of protein N of SARS-CoV Urbani / Binding of serum SARS-green to looped/cyclic peptides of protein N of SARS-CoV Urbani: unit not given here
[2] = system: control sera (pooled serum of ten healthy LUMC hospital workers; commercial negative donor pooled serum from the Dutch bloodbank); assay type: binding, human; design: Binding of Control serum LUMC to linear peptides / Binding of Control serum Blood-bank to linear peptides / Binding of Control serum LUMC to looped peptides / Binding of Control Serum Blood-Bank to Looped peptides / Binding of Control serum LUMC to linear peptides of the protein M of SARS-CoV Urbani / Binding of Control serum Blood-bank to linear peptides of the protein M of SARS-CoV Urbani / Binding of Control serum LUMC to looped peptides of the protein M of SARS-CoV Urbani / Binding of Control Serum Blood-Bank to Looped peptides of the protein M of SARS-CoV Urbani: unit not given here
[3] = system: rabbit serum obtained by immunizing a rabbit with the SARS-CoV strain Frankfurt 1; assay type: binding; design: Binding of a rabbit serum to linear peptides / Binding of a rabbit serum to looped peptides / Rabbit serum linear peptides / Rabbit serum looped peptides / Binding of a rabbit serum to linear peptides of protein N of SARS-CoV Urbani (Rabbit serum linear peptides) / Binding of a rabbit serum to looped/cyclic peptides of protein N of SARS-CoV Urbani (Rabbit serum looped peptides): unit not given here

MDLFMRFFTLGSITA
1.0: Binding of serum 6 to looped/cyclic peptide (PEPSCAN-ELISA) [1]
0.3: Binding of serum 1b to looped/cyclic peptide (PEPSCAN-ELISA) [1] | Binding of serum London to linear peptides of protein X1 of SARS-CoV Urbani [1]
0.8: Binding of serum 1a to linear peptides of protein X1 of SARS-CoV Urbani [1] | Binding of serum London to looped/cyclic peptide (PEPSCAN-ELISA) [1]
0.6: Binding of serum SARS-green to linear peptides of protein X1 of SARS-CoV Urbani [1] | Binding of Control Serum Blood-Bank to Looped peptides [2] | Binding of Control serum LUMC to linear peptides [2] | Binding of Control serum LUMC to looped peptides [2]
0.4: Binding of serum 2 to looped/cyclic peptide (PEPSCAN-ELISA) [1] | Binding of serum 37 to looped/cyclic peptide (PEPSCAN-ELISA) [1] | Binding of serum SARS-green to looped/cyclic peptide (PEPSCAN-ELISA) [1]
0.5: Binding of serum 1a to looped/cyclic peptide (PEPSCAN-ELISA) [1] | Binding of serum 6 to linear peptides of protein X1 of SARS-CoV Urbani [1] | Binding of serum 62 to looped/cyclic peptide (PEPSCAN-ELISA) [1] | Binding of serum SARS-yellow to linear peptides of protein X1 of SARS-CoV Urbani [1] | Binding of serum SARS-yellow to looped/cyclic peptide (PEPSCAN-ELISA) [1] | Binding of a rabbit serum to linear peptides [3] | Binding of a rabbit serum to looped peptides [3]
0.7: Binding of serum 1b to linear peptides of protein X1 of SARS-CoV Urbani [1] | Binding of serum 2 to linear peptides of protein X1 of SARS-CoV Urbani [1] | Binding of serum 37 to linear peptides of protein X1 of SARS-CoV Urbani [1] | Binding of serum 62 to linear peptides of protein X1 of SARS-CoV Urbani [1] | Binding of Control serum Blood-bank to linear peptides [2]

MESELVIGAVIIRGH
0.2: Binding of serum London to looped/cyclic peptides of protein M of SARS-CoV Urbani [1] | Binding of serum SARS-green to looped/cyclic peptides of protein M of SARS-CoV Urbani [1] | Binding of serum SARS-yellow to linear peptides of protein M of SARS-CoV Urbani [1] | Rabbit serum linear peptides [3] | Rabbit serum looped peptides [3]
0.5: Binding of serum 1b to looped/cyclic peptides of protein M of SARS-CoV Urbani [1] | Binding of serum 37 to linear peptides of protein M of SARS-CoV Urbani [1] | Binding of serum 62 to linear peptides of protein M of SARS-CoV Urbani [1]
0.6: Binding of serum 2 to looped/cyclic peptides of protein M of SARS-CoV Urbani [1] | Binding of serum 6 to linear peptides of protein M of SARS-CoV Urbani [1] | Binding of serum 62 to looped/cyclic peptides of protein M of SARS-CoV Urbani [1] | Binding of serum SARS-yellow to looped/cyclic peptides of protein M of SARS-CoV Urbani [1] | Binding of Control serum LUMC to looped peptides of the protein M of SARS-CoV Urbani [2]
0.7: Binding of serum 1a to looped/cyclic peptides of protein M of SARS-CoV Urbani [1] | Binding of serum 1b to linear peptides of protein M of SARS-CoV Urbani [1] | Binding of serum 6 to looped/cyclic peptides of protein M of SARS-CoV Urbani [1] | Binding of serum 37 to looped/cyclic peptides of protein M of SARS-CoV Urbani [1] | Binding of serum SARS-green to linear peptides of protein M of SARS-CoV Urbani [1] | Binding of Control Serum Blood-Bank to Looped peptides of the protein M of SARS-CoV Urbani [2]
0.8: Binding of serum 1a to linear peptides of protein M of SARS-CoV Urbani [1] | Binding of serum 2 to linear peptides of protein M of SARS-CoV Urbani [1] | Binding of Control serum Blood-bank to linear peptides of the protein M of SARS-CoV Urbani [2] | Binding of Control serum LUMC to linear peptides of the protein M of SARS-CoV Urbani [2]
0.4: Binding of serum London to linear peptides of protein M of SARS-CoV Urbani [1]

MFHLVDFQVTIAEIL
0.9: Binding of Control serum Blood-bank to linear peptides of the protein X3 of SARS-CoV Urbani [2] | Binding of Control serum LUMC to linear peptides of the protein X3 of SARS-CoV Urbani [2]
0.5: Binding of serum 6 to linear peptides of protein X3 of SARS-CoV Urbani [1]
0.7: Binding of serum 1b to linear peptides of protein X3 of SARS-CoV Urbani [1] | Binding of serum 2 to linear peptides of protein X3 of SARS-CoV Urbani [1] | Binding of serum 37 to linear peptides of protein X3 of SARS-CoV Urbani [1] | Binding of serum London to linear peptides of protein X3 of SARS-CoV Urbani [1]
0.6: Binding of serum 1b to looped/cyclic peptides of protein X3 of SARS-CoV Urbani [1] | Binding of serum 6 to looped/cyclic peptides of protein X3 of SARS-CoV Urbani [1] | Binding of serum SARS-green to looped/cyclic peptides of protein X3 of SARS-CoV Urbani [1] | Binding of serum SARS-yellow to linear peptides of protein X3 of SARS-CoV Urbani [1]
0.3: Binding of serum London to looped/cyclic peptides of protein X3 of SARS-CoV Urbani [1] | Binding of serum SARS-green to linear peptides of protein X3 of SARS-CoV Urbani [1] | Rabbit serum linear peptides [3]
0.4: Rabbit serum looped peptides [3]
1.0: Binding of serum 37 to looped/cyclic peptides of protein X3 of SARS-CoV Urbani [1] | Binding of Control serum LUMC to looped peptides of the protein X3 of SARS-CoV Urbani [2]
0.8: Binding of serum 1a to linear peptides of protein X3 of SARS-CoV Urbani [1] | Binding of serum 1a to looped/cyclic peptides of protein X3 of SARS-CoV Urbani [1] | Binding of serum 2 to looped/cyclic peptides of protein X3 of SARS-CoV Urbani [1] | Binding of serum 62 to linear peptides of protein X3 of SARS-CoV Urbani [1] | Binding of serum 62 to looped/cyclic peptides of protein X3 of SARS-CoV Urbani [1] | Binding of serum SARS-yellow to looped/cyclic peptides of protein X3 of SARS-CoV Urbani [1] | Binding of Control Serum Blood-Bank to Looped peptides of the protein X3 of SARS-CoV Urbani [2]

Reference: US20070128217A1 (priority 2003, published 2007)
